Results from patent publication US10144742B2 (Millennium Pharmaceuticals, Inc., priority 2014, dated 2018).
Read-outs that look alike come from different tables or passages of the source.

Key:
PC3 cells = assay: PC3 growth inhibition (Cell-titer glo, 72 hours); type: cell-based; conditions: Homo sapiens, read-out: Percent Inhibition (PC3 growth inhibition); for inhibition at 1.667 µM: compound concentration 1.667 μM
In short: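 Compounds in AIM serum-free medium were applied for 72 h at 37 °C, 5% CO2 to PC3 cells plated overnight from RPMI1640 culture. Luminescence after 10 min CellTiter-Glo, normalised to DMSO, gave % viability at 1 μM or 1.667 μM, or GI50/LD50.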

hNAMPT protein = hNAMPT protein (Homo sapiens (Human), UniProt P43490); assay: NAMPT enzyme assay (TR-FRET/HTRF, BodiPY ligand, anti 6His-Tb); type: binding; conditions: for IC50: read-out: IC50; for inhibition at 1 µM: read-out: Percent Inhibition
In short: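 Compound or DMSO was incubated for 1 h at room temperature, protected from light, with BodiPY ligand and hNAMPT labelled by terbium anti-6His antibody. The 520 nm to 486 nm emission ratio after 320 nm excitation gave inhibition versus vehicle, from which concentration-response curves yielded IC50.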

[1] = PC-3, compound concentration 1 μM, PC3 cells, 72 hours, Cell-titer glo
[2] = PC-3, PC3 cells, 72 hours, Cell-titer glo
[3] = NAMPT inhibition at compound concentration 1 μM
[4] = NAMPT inhibition, IC50 range class

Sequence of hNAMPT protein (P43490 whole entry): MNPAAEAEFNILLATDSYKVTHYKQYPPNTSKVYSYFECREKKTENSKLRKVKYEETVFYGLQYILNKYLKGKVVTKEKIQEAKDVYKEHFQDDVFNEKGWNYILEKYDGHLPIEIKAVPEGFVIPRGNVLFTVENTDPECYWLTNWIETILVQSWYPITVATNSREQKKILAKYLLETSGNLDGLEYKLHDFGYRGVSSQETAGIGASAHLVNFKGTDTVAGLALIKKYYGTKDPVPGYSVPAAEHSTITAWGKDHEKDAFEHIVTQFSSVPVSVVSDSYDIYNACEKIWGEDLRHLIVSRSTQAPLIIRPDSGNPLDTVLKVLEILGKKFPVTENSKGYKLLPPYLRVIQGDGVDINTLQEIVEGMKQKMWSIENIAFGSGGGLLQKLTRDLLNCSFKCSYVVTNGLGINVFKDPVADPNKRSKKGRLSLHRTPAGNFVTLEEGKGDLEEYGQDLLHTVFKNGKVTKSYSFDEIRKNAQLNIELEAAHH

| Structure (SMILES) | inhibition at 1 µM (PC3 cells; [1]) | IC50 (hNAMPT protein; NAMPT IC50 range class) | inhibition at 1 µM (hNAMPT protein; compound concentration 1 μM) | inhibition at 1.667 µM (PC3 cells; [2]) | inhibition at 1 µM (hNAMPT protein; [3]) | IC50 (hNAMPT protein; [4]) | inhibition at 1 µM (PC3 cells; PC-3, 72 h) | inhibition at 1 µM (hNAMPT protein) |
| --- | --- | --- | --- | --- | --- | --- | --- | --- |
| O=C(NCCCn1ccnc1)c1ccc2nc(-c3ccccc3)c(-c3ccncc3)nc2c1 [Compound I-251, N-[3-(1H-imidazol-1-yl)propyl]-2-phenyl-3-(pyridin-4-yl)quinoxaline-6-carboxamide] | 1% | 100 to 500 nM | 65% |  |  |  |  |  |
| CCOc1nc2ccc(C(=O)NCCCc3ncc[nH]3)cc2nc1-c1ccc(F)cc1 [Compound I-440, 2-ethoxy-3-(4-fluorophenyl)-N-[3-(1H-imidazol-2-yl)propyl]quinoxaline-6-carboxamide] |  |  |  | 3% | 94% | < 100 nM |  |  |
| O=C(NCCc1cnc2ccccn12)c1ccc2nc(-c3ccc(F)cc3)c(-c3ccc(F)cc3)nc2c1 [Compound I-302, 2,3-bis(4-fluorophenyl)-N-[2-(imidazo[1,2-a]pyridin-3-yl)ethyl]quinoxaline-6-carboxamide] | 87% | 500 to 1000 nM | 63% |  |  |  |  |  |
| Cc1nc2ccc(C(=O)NCCCn3ccnc3)cc2nc1-c1ccccc1 [Compound I-158, N-[3-(1H-imidazol-1-yl)propyl]-2-methyl-3-phenylquinoxaline-6-carboxamide] | 0% | 1000 to 2000 nM | 42% |  |  |  |  |  |
| Cn1cc2c(n1)CN(c1nc3ccc(C(=O)NCCCn4ccnc4)cc3nc1-c1ccccc1)CC2 [Compound I-200, N-[3-(1H-imidazol-1-yl)propyl]-2-(2-methyl-2,4,5,7-tetrahydro-6H-pyrazolo[3,4-c]pyridin-6-yl)-3-phenylquinoxaline-6-carboxamide] | -7% | 100 to 500 nM | 85% |  |  |  |  |  |
| O=C(NCCCn1ccnc1)c1ccc2nc(-c3ccccc3)c(N3CCCC3)nc2c1 [Compound I-124, N-[3-(1H-imidazol-1-yl)propyl]-2-phenyl-3-(pyrrolidin-1-yl)quinoxaline-6-carboxamide] | 27% | 1000 to 2000 nM | 38% |  |  |  |  |  |
| CS(=O)(=O)Nc1cccc(-c2nc3cc(C(=O)NCCCn4ccnc4)ccc3nc2-c2ccccc2)c1 [Compound I-48, N-[3-(1H-imidazol-1-yl)propyl]-3-{3-[(methylsulfonyl)amino]phenyl}-2-phenylquinoxaline-6-carboxamide] | 1% | 100 to 500 nM | 87% |  |  |  |  |  |
| CC(C)Oc1nc2ccc(C(=O)NCCCc3ncc[nH]3)cc2nc1-c1cccc(SC(F)(F)F)c1 [Compound I-421, N-[3-(1H-imidazol-2-yl)propyl]-2-isopropoxy-3-{3-[(trifluoromethyl)sulfanyl]phenyl}quinoxaline-6-carboxamide] |  |  |  | 1% | 78% | 100 to 500 nM |  |  |
| O=C(NCCCc1ncc[nH]1)c1ccc2nc(N3CCC(N4CCOCC4)CC3)c(-c3cccs3)nc2c1 [Compound I-44, N-[3-(1H-imidazol-2-yl)propyl]-2-[4-(morpholin-4-yl)piperidin-1-yl]-3-(2-thienyl)quinoxaline-6-carboxamide] |  | < 100 nM | > 99% | 33% |  |  |  |  |
| COc1cc(-c2nc3cc(C(=O)NCCCc4ncc[nH]4)ccc3nc2-c2ccc(F)cc2)c(F)cn1 [Compound I-466, 3-(5-fluoro-2-methoxy-4-pyridyl)-2-(4-fluorophenyl)-N-[3-(1H-imidazol-2-yl)propyl]quinoxaline-6-carboxamide] |  |  |  | 2% | 95% | < 100 nM |  |  |
| O=C(NCCCn1ccnc1)c1ccc2nc(C3=CCOCC3)c(-c3ccccc3)nc2c1 [Compound I-141, 2-(3,6-dihydro-2H-pyran-4-yl)-N-[3-(1H-imidazol-1-yl)propyl]-3-phenylquinoxaline-6-carboxamide] | -8% | 100 to 500 nM | 74% |  |  |  |  |  |
| O=C(NCCCn1ccnc1)c1ccc2nc(N3CCn4ccnc4C3)c(-c3ccccc3)nc2c1 [Compound I-296, 2-(5,6-dihydroimidazo[1,2-a]pyrazin-7(8H)-yl)-N-[3-(1H-imidazol-1-yl)propyl]-3-phenylquinoxaline-6-carboxamide] | -7% | 500 to 1000 nM | 67% |  |  |  |  |  |
| O=C(NCc1ccc2nccn2c1)c1ccc2nc(N3CCC(O)CC3)c(-c3ccc(F)cc3)nc2c1 [Compound I-156, 3-(4-Fluorophenyl)-2-(4-hydroxypiperidin-1-yl)-N-(imidazo[1,2-a]pyridin-6-ylmethyl)quinoxaline-6-carboxamide] |  | < 100 nM | 97% | 2% |  |  |  |  |
| Cn1cncc1CCNC(=O)c1ccc2nc(-c3ccc(F)cc3)c(-c3ccc(F)cc3)nc2c1 [Compound I-53, 2,3-bis(4-fluorophenyl)-N-[2-(1-methyl-1H-imidazol-5-yl)ethyl]quinoxaline-6-carboxamide] | -6% | 100 to 500 nM | 77% |  |  |  |  |  |
| COc1cccc(-c2nc3cc(C(=O)NCCCc4cccnc4)ccc3nc2N2CCC(N3CCOCC3)CC2)c1 [Compound I-70, 3-(3-methoxyphenyl)-2-[4-(morpholin-4-yl)piperidin-1-yl]-N-[3-(pyridin-3-yl)propyl]quinoxaline-6-carboxamide] |  | < 100 nM | > 99% | 2% |  |  |  |  |
| O=C(c1ccc2nc(-c3ccc(F)cc3)c(-c3ccc(F)cc3)nc2c1)N1CCC(c2cccnc2)C1 (stereo not drawn) [Compound I-29, [2,3-bis(4-fluorophenyl)quinoxalin-6-yl][3-(pyridin-3-yl)pyrrolidin-1-yl]methanone] | 96% | 2000 to 10000 nM | 36% |  |  |  |  |  |
| O=C(NCCCc1c[nH]cn1)c1ccc2nc(-c3ccc(F)cc3)c(-c3ccc(F)cc3)nc2c1 [Compound I-192, 2,3-bis(4-fluorophenyl)-N-[3-(1H-imidazol-4-yl)propyl]quinoxaline-6-carboxamide] | -7% | 100 to 500 nM | 78% |  |  |  |  |  |
| O=C(NCCCc1ncc[nH]1)c1ccc2nc(OC3CC4(CCN4)C3)c(-c3ccc(F)cc3)nc2c1 (stereo not drawn) [Compound I-404, 2-(1-azaspiro[3.3]hept-6-yloxy)-3-(4-fluorophenyl)-N-[3-(1H-imidazol-2-yl)propyl]quinoxaline-6-carboxamide] |  |  |  | 1% | > 99% | < 100 nM |  |  |
| COc1cccc(-c2nc3cc(C(=O)NCCCn4ccnc4)ccc3nc2-c2ccccc2)c1 [Compound I-218, N-[3-(1H-imidazol-1-yl)propyl]-3-(3-methoxyphenyl)-2-phenylquinoxaline-6-carboxamide] | 0% | < 100 nM | 100% |  |  |  |  |  |
| COc1ccc(-c2nc3cc(C(=O)NCCCn4ccnc4)ccc3nc2-c2ccccc2)cc1 [Compound I-241, N-[3-(1H-imidazol-1-yl)propyl]-3-(4-methoxyphenyl)-2-phenylquinoxaline-6-carboxamide] | 1% | 500 to 1000 nM | 57% |  |  |  |  |  |
| CCOc1nc2ccc(C(=O)NCCCc3ncc[nH]3)cc2nc1-c1ccc(Cl)cc1 [Compound I-402, 3-(4-chlorophenyl)-2-ethoxy-N-[3-(1H-imidazol-2-yl)propyl]quinoxaline-6-carboxamide] |  |  |  | 2% | 97% | < 100 nM |  |  |
| O=C(NCCCc1ccncc1)c1ccc2nc(-c3ccc(F)cc3)c(-c3ccc(F)cc3)nc2c1 [Compound I-229, 2,3-bis(4-fluorophenyl)-N-[3-(pyridin-4-yl)propyl]quinoxaline-6-carboxamide] | 95% | 100 to 500 nM | 73% |  |  |  |  |  |
| CC(C)(C)OC(=O)NCc1cccc(-c2nc3cc(C(=O)NCCCn4ccnc4)ccc3nc2-c2ccccc2)c1 [Compound I-85, tert-Butyl [3-(7-{[3-(1H-imidazol-1-yl)propyl]carbamoyl}-3-phenylquinoxalin-2-yl)benzyl]carbamate] |  | 2000 to 10000 nM |  |  |  |  | 8% | 25% |
| O=C(NCCc1ccccn1)c1ccc2nc(N3CCC(C4CCNCC4)CC3)c(-c3ccccc3)nc2c1 [Compound I-130, 2-(4,4′-Bipiperidin-1-yl)-3-phenyl-N-[2-(pyridin-2-yl)ethyl]quinoxaline-6-carboxamide] | 93% | 100 to 500 nM |  |  |  |  |  | 81% |
| O=C(NCCCn1ccnc1)c1ccc2nc(-c3ccccc3)c(-c3ccc4nccn4c3)nc2c1 [Compound I-69, N-[3-(1H-imidazol-1-yl)propyl]-3-(imidazo[1,2-a]pyridin-6-yl)-2-phenylquinoxaline-6-carboxamide] | 0% | 100 to 500 nM | 75% |  |  |  |  |  |
| Cc1nc(C)c(-c2nc3cc(C(=O)NCCCn4ccnc4)ccc3nc2-c2ccccc2)s1 [Compound I-9, 3-(2,4-dimethyl-1,3-thiazol-5-yl)-N-[3-(1H-imidazol-1-yl)propyl]-2-phenylquinoxaline-6-carboxamide] | 1% | 1000 to 2000 nM | 36% |  |  |  |  |  |
| O=C(NCCCc1ncc[nH]1)c1ccc2nc(OCc3ccccn3)c(-c3ccc(F)cc3)nc2c1 [Compound I-396, 3-(4-fluorophenyl)-N-[3-(1H-imidazol-2-yl)propyl]-2-(pyridin-2-ylmethoxy)quinoxaline-6-carboxamide] |  |  |  | 2% | 98% | < 100 nM |  |  |
